In PMC10144242, “Design, Synthesis, In Vitro, and In Silico Insights of 5-(Substituted benzylidene)-2-phenylthiazol-4(5H)-one Derivatives: A Novel Class of Anti-Melanogenic Compounds” (Molecules, 2023):

Key:
[1] = DPPH radical scavenging assay; conditions: 1 mM, 30 min in the dark
Protocol: The 2,2-diphenyl-1-picrylhydrazyl (DPPH) radical scavenging capacity of the (Z)-BPT derivatives (1 mM) was investigated using L-ascorbic acid (1 mM, vitamin C) as a positive control. […] L-Ascorbic acid scavenged 97.1% of the DPPH radical, whereas (Z)-BPT derivative 1 with a 4-hydroxyl substituent on the β-phenyl ring scavenged 46.5% of the DPPH radical.
The antioxidant properties of (Z)-BPT derivatives 1–14 against DPPH (2,2-diphenyl-1-picrylhydrazyl) radicals were examined using a DPPH radical scavenging assay, as previously described with minor modifications. DPPH solution (180 µL, 0.2 mM) in methanol was mixed with a (Z)-BPT derivative solution (1–14, 20 µL, 10 mM) in dimethyl sulfoxide in each well of a 96-well plate, and the mixture was kept for 30 min in the dark at room temperature. The absorbance at 517 nm was measured using a VersaMax ™ microplate reader (Molecular Devices, Sunnyvale, CA, USA). The capacity of the derivatives to scavenge DPPH radicals was compared with that of L-ascorbic acid, which was used as the positive control. Each experiment was run independently in triplicates.
Figure 10 The radical scavenging effect of (Z)-BPT derivatives on DPPH. The DPPH radical scavenging activities of test samples (1 mM) were assayed after being left in the dark for 30 min. Distilled water and dimethyl sulfoxide (DMSO) were utilized as the solvents for the positive control L-ascorbic acid and the (Z)-BPT derivatives, respectively. Asterisks (***) represent a significant difference between L-ascorbic acid and the (Z)-BPT derivatives, and results are expressed as the mean ± standard error of three different experiments. *** p < 0.001.

mushroom tyrosinase = mushroom tyrosinase (Agaricus bisporus, UniProt C7FF04); assay: Kinetic studies on mushroom tyrosinase inhibition (Lineweaver–Burk and Dixon plots, L-DOPA substrate); format: biochemical; parameters: purchased Sigma-Aldrich; conditions: for Ki: Dixon plots, read-out: Ki (inhibition constant); for Inhibition type: Lineweaver–Burk plot
mushroom tyrosinase, sequence (C7FF04 1-392 limits assumed): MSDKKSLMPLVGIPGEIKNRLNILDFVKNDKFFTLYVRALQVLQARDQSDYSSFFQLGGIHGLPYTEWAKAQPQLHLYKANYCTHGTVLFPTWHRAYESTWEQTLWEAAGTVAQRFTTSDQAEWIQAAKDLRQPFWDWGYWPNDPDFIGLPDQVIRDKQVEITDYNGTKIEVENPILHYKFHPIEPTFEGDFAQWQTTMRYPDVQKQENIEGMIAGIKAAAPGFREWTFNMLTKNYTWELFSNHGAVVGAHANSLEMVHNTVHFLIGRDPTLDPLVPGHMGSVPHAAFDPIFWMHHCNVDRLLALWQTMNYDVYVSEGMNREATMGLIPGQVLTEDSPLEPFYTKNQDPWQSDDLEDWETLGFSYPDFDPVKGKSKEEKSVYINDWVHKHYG
Protocol: As depicted in Figure 2, the mechanisms of tyrosinase inhibition were analyzed using Lineweaver–Burk plots. […] Each of the four straight lines produced at each inhibitor concentration converged to a single point on the y-axis. […] In contrast, in derivative 3, four straight lines generated at each inhibitor concentration intersected at a point in the second quadrant. According to the Lineweaver–Burk plot, as the inhibitor concentration increased, the Vmax value of 3 decreased, but the KM value increased.
To determine the Ki (inhibition constant) values of (Z)-BPT derivatives 1–3, Lineweaver–Burk plots for 1–3 were transformed into the corresponding Dixon plots (Figure 3). Each Dixon plot obtained from each Lineweaver–Burk plot produced four straight lines that intersected at one point in the second quadrant. The vertical lines from the merge point to the x-axis provide the Ki value of each (Z)-BPT derivative.
To determine the mode of action, Lineweaver–Burk plots of (Z)-BPT derivatives 1–3 were acquired. In brief, 10 µL of (Z)-BPT derivatives 1–3 (final concentrations:0, 3, 6, or 12 µM for 1; 0, 0.05, 0.1, or 0.2 µM for 2; 0, 2.5, 5, or 10 µM for 3) was added to a 96-well plate containing a substrate mixture (170 µL) consisting of an aqueous solution of L-dopa at final concentrations of 0.5, 1.0, 2.0, or 4.0 mM and 14.7 mM potassium phosphate buffer (pH 6.5), and a mushroom tyrosinase aqueous solution (20 µL, 20 units). Using a microplate reader (VersaMax^TM, Molecular Devices, Sunnyvale, CA, USA) to measure the increase in absorbance at a wavelength of 492 nm (ΔOD492/min), the initial rate of dopachrome synthesis in the reaction mixture was estimated. Using five different concentrations of L-dopa, Lineweaver–Burk plots (inverse of the response rate (1/V) vs. inverse of L-dopa concentration (1/(S)) were created. The convergence points of the four plot lines were used to define the mode of action of tyrosinase inhibition.
Figure 2 Lineweaver–Burk plots for the inhibition of mushroom tyrosinase activity by (Z)-BPT derivatives 1–3. […] Three independent experiments with five different concentrations (0.5, 1, 2, 4, and 8 mM) of an L-DOPA substrate were used to measure the augmented dopachrome optical density per minute at 492 nm. The data are shown as mean values of 1/V (an inverse of that optical density per minute). The (Z)-BPT derivatives were used at concentrations of 0 (filled circles), 3 (unfilled circles), 6 (filled triangles), and 12 µM (unfilled triangles) for 1; 0 (filled circles), 0.05 (unfilled circles), 0.1 (filled triangles), and 0.2 µM (unfilled triangles) for 2; and 0 (filled circles), 2.5 (unfilled circles), 5 (filled triangles), and 10 µM (unfilled triangles) for 3. Each experiment was run independently in triplicates.
Figure 3 Dixon plots for the inhibition of mushroom tyrosinase activity by (Z)-BPT derivatives 1–3. The Ki values of (Z)-BPT derivatives 1–3 were obtained from the absolute values of the x-coordinate where four straight lines converged at one point. Three independent experiments with four different concentrations of (Z)-BPT derivatives were conducted to measure the augmented dopachrome optical density per minute at 492 nm. The data are shown as the mean values of 1/V (an inverse of that optical density per minute). The (Z)-BPT derivatives were used at concentrations of 0, 3, 6, and 12 µM for 1; 0, 0.05, 0.1, and 0.2 µM for 2; and 0, 2.5, 5, and 10 µM for 3. The experiments were performed at four different concentrations (0.5, 1, 2, and 4 mM) of L-DOPA. Each experiment was run independently in triplicates.

SMILES	DPPH radical scavenging activity [1] [%]	Ki (mushroom tyrosinase) [µM]	Inhibition type (mushroom tyrosinase)
O=C1N=C(c2ccccc2)S/C1=C\c1ccc(O)cc1 [Compound 1, (Z)-5-(4-Hydroxybenzylidene)-2-phenylthiazol-4(5H)-one]	46.5	8.89	Competitive
O=C1N=C(c2ccccc2)S/C1=C\c1ccc(O)cc1O [Compound 2, (Z)-5-(2,4-Dihydroxybenzylidene)-2-phenylthiazol-4(5H)-one]	66.9	0.1	Competitive
